Data from patent US20190308035A1, “A NON-INVASIVE METHOD FOR SELECTIVE NEURAL STIMULATION BY ULTRASOUND” (priority 2018, published 2019).
Entries after “also recorded” stand apart in the source; their conditions may differ. Bridge positions count the residues as written; N and C are the ends. Ends that are not written are not given here.

Legend:
[1] = test system: CLU199 cells; experiment: qPCR array of cAMP/calcium signalling genes in CLU199 cells; type: cell-based, mouse; conditions: array of 84 genes, Yodal 1 μM, vs untreated control
Experimental: Ultrasonic effects in CLU199 cells were explored using a qPCR array that probes 84 genes known to have Ca2+ responsive elements of various kinds.
A qRT-PCR array that explores genes that regulate calcium-related signalling (RT2 Pathway Finder) was used to evaluate how ultrasound treatment affects cellular signalling. Cells were also either pre-treated with GsMTx-4 (10 μM) before ultrasound or treated with Yodal (1 μM) by way of comparison. Results of the PCR were uploaded to Qiagen/SABiosciences online suite for data analysis, and clustergrams were generated using this software. Information about various subgroups of genes described here (FIG. 2J) were obtained from the product literature.
CLU199 cells seeded in 35 mm dishes were treated with ultrasound, Yodal or GsMTx-4 as appropriate. Total RNA was collected as described in section 7, and the concentration measured on NanoDrop™ One (Thermo Fisher Scientific). Samples with 260/280>1.8 and 260/230>2.0 were run on a 1% agarose gel containing bleach to check for RNA integrity (2). […] Ct values were calculated using the Quantstudio™ software, exported into a spreadsheet and uploaded to SABiosciences' online array data analysis software (accessible at: http://pcrdataanalysis.sabiosciences.com/per/arrayanalysis.php). […] Resulting clustergrams and a spreadsheet containing the analyzed results were obtained from this software. […]

[2] = target: T1, Piezo1 (Mus musculus, UniProt E2JF22); experiment: Calcium imaging (Cal590) in 293T cells overexpressing Piezo1; type: cell-based; parameters: EGFP; expressed in transfected cells; host or cells: 293T cells (ATCC), pcDNA3.1 Piezo1-EGFP plasmid provided by Dr. Ardem Patapoutian; conditions: Yodal; 293T cells overexpressing Piezo1 vs control cells
T1 sequence (E2JF22 whole entry): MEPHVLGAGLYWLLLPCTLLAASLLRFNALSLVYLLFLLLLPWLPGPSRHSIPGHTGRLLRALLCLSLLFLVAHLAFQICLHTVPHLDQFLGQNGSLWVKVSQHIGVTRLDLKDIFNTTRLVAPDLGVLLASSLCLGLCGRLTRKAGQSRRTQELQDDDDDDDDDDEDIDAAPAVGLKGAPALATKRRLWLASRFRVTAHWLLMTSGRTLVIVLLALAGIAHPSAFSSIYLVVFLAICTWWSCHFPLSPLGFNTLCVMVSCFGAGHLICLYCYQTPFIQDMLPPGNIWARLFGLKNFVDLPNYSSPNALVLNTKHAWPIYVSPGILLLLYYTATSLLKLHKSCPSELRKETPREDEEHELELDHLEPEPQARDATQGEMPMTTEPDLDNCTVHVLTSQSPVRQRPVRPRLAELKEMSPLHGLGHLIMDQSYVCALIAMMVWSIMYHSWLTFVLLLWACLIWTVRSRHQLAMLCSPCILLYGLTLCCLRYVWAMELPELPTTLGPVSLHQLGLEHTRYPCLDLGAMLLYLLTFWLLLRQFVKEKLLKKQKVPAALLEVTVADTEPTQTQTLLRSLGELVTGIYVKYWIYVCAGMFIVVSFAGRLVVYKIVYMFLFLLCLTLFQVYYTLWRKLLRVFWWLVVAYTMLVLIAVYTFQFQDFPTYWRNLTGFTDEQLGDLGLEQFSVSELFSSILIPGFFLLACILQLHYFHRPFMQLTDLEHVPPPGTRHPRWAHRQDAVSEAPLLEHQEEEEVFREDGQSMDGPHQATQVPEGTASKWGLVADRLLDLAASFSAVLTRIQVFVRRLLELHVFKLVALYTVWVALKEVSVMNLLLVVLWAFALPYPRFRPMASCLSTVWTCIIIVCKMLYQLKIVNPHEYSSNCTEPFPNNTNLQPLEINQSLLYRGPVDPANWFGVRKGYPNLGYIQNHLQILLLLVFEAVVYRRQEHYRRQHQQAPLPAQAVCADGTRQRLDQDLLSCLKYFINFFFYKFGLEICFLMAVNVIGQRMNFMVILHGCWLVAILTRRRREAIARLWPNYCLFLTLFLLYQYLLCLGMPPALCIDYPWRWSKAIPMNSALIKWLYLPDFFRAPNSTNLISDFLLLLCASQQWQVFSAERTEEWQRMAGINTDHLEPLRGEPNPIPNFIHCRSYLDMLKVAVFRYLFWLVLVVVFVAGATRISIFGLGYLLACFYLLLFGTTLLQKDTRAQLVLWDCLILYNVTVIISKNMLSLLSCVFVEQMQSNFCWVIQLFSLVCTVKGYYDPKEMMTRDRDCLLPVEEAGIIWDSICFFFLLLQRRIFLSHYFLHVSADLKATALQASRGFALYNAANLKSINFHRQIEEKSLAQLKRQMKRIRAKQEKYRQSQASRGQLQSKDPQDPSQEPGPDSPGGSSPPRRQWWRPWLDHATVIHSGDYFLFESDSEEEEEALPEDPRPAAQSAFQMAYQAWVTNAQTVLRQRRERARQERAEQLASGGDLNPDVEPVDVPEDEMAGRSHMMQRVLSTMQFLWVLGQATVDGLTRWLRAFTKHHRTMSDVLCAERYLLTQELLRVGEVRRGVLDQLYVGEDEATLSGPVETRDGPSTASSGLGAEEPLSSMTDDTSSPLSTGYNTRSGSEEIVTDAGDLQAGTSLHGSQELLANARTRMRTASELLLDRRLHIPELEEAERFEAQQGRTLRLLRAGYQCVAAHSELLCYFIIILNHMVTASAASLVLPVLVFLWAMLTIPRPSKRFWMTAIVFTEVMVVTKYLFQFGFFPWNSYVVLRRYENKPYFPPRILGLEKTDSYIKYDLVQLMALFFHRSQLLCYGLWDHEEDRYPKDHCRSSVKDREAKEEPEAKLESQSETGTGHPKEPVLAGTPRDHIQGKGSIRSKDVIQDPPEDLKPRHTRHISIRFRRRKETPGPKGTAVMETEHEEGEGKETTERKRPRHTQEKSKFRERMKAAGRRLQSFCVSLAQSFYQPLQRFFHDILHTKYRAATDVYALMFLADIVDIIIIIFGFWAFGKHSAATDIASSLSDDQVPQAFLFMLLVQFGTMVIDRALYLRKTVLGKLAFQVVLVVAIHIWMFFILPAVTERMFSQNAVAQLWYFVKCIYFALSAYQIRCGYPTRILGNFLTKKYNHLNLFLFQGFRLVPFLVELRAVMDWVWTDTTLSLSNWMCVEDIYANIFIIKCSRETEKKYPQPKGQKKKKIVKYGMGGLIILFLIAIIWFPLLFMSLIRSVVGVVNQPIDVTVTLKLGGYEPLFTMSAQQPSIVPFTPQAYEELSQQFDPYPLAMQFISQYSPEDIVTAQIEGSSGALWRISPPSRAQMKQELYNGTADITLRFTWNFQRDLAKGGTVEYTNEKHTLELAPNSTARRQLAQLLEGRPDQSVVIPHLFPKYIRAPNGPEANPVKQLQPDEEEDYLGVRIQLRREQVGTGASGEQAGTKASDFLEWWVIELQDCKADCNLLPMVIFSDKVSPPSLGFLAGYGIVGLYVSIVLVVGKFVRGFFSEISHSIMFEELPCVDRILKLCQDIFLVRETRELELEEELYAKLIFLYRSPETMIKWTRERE

[3] = target: T1, Piezo1; experiment: Western blot of p-CaMKII and p-CREB in CLU199 cells; type: cell-based; parameters: Expression of Piezo1 in CLU199 cells was confirmed through RT-PCR; host or cells: mHippoE-18 (CLU199) embryonic mouse hippocampal cell line
Experimental: To evaluate effects on cell signalling, the phosphorylated forms of the Calcium/calmodulin-dependent protein kinase type II (p-CaMKII), and the transcription factor CREB (p-CREB) (28), both crucial players in Ca2+ signalling were analysed.
0.3 MPa ultrasound was then used to treat CLU199 cells with or without Yodal, or the Piezo1 blocker GsMTx-4 [7].
SMARTpool ON-TARGETplus Piezo1 siRNA (L-061455-00-0005) and ON-TARGETplus Non-Targeting Pool (D-001810-10) siRNA were obtained from Dharmacon. Transfection complexes were prepared by incubating siRNA with Lipofectamine RNAiMAX (Invitrogen) in Opti-MEM for 5 minutes at room temperature. 300 μl of complexes added per 35 mm dish or collagen-coated coverslips (5 μg/cm2). 1.5×10^6 cells were added per dish in fully-supplemented DMEM such that the final siRNA concentration was 125 nM. Cells were incubated for 48 hours post-transfection, and then used for further experiments.
(§1) CLU199 cells or primary cortical neurons at DIV 10 were treated with ultrasound at acoustic pressures of 0.1, 0.3 or 0.5 MPa for 20 minutes with 20 s interval inside a humified incubator, 37° C., 5% CO2. The ultrasonic stimulation system and treatment parameters are the same as those described in section 4. Yodal (Tocris Bioscience) was used as a Piezo1 agonist with a concentration of 1 μM, while GsMTx-4 (Abcam) was used as a Piezo1 blocker at a concentration of 10 μM. Yodal was added to culture media, followed by a 20-minute incubation or immediate ultrasound treatment. GsMTx-4 was added to culture media, allowed for 30 minutes incubation, and followed by a further 20-minute incubation or ultrasound treatment.
Cells were lysed with RIPA buffer (EMD Millipore), supplemented with 1× Halt™ Protease and Phosphatase Inhibitor Cocktail (Thermo Fisher Scientific) on ice, centrifuged to clear the lysate, and protein concentrations measured using the Bio-Rad protein assay. 30 or 50 μg total protein per well was loaded on 10% SDS-PAGE gels, electrophoresed, and transferred to methanol-activated PVDF membranes. Membranes were blocked with 3% BSA in Tris-buffered-saline+0.05% Tween-20 (TBST). Membranes were incubated in primary antibody diluted in 5% BSA in TBST overnight, washed with TBST and incubated in secondary antibody solutions, diluted in blocking buffer, for 1 hour at room temperature. […]
Protein levels were quantified through image densitometry using ImageJ. Protein levels were expressed as a fold change compared to the untreated control, an average ±SEM of at least three independent experiments, except in FIG. 2E. Statistical significance was calculated using a two-tailed unpaired student's t-test and P values below 0.05 were considered significant.

[4] = target: T1, Piezo1; experiment: Immunocytochemical staining of c-Fos, p-CaMKII and p-CREB in primary cortical neurons; type: cell-based; parameters: Expression of Piezo1 in CLU199 cells was confirmed through RT-PCR; host or cells: mHippoE-18 (CLU199) embryonic mouse hippocampal cell line; conditions: GsMTx-4 10 μM followed by 0.3 MPa ultrasound
Experimental: The expression of c-Fos, p-CaMKII and p-CREB was investigated by immunocytochemical staining in primary cortical neurons untreated, treated by ultrasound or treated with GsMTx-4 (10 μM) followed by ultrasound. Each stimulus contained 200 cycles, at 1 kHz RPF with 200 NTB of 500 kHz ultrasound at 0.3 MPa and the results are shown in FIG. 2I.
Primary cortical neurons from embryonic mice brains were harvested as described previously with slight modifications. Briefly, pregnant mice were sacrificed at E16.5-E17, and brains from the embryonic mice were collected. They were then dissected under a microscope to separate the cortex from the other brain mass. Cortical cells were dispersed and seeded into culture dishes or collagen-coated glass coverslips (4 μg/cm2). At DIV 10, the cells were used for further experiments.
as §1
CLU199 cells and primary neurons at DIV 10, including treated with (+) or without (−) ultrasound, were fixed using 4% paraformaldehyde+PBS and permeabilized using 0.1% Triton X-100+PBS. […] The number of c-Fos+ cells were determined by counting the number of DAPI and c-Fos signals co-located with DAPI from 10 FOVs photographed per condition. Results were expressed as a percentage of c-Fos versus DAPI signals, and were subjected to a one-way ANOVA followed by a post-hoc Tukey test. […]

[5] = Yodal 1 μM alone, vs untreated control
[6] = GsMTx-4 10 μM incubation before 0.3 MPa ultrasound

Clc1cccc(Cl)c1CSc1nnc(-c2cnccn2)s1 [Yodal]
number of genes co-downregulated by ultrasound and Yodal [1]: 23
number of genes co-upregulated by ultrasound and Yodal [1]: 43
calcium influx [2]: Significant Ca2+ increase; also recorded: significantly higher calcium influx
p-CREB level [3, 5]: increased; also recorded: upregulate
p-CaMKII level [3, 5]: increased; also recorded: upregulate

GsMTx-4: Piezo1-specific blocker (Abcam), used at 10 μM (GCLEFWWKCNPNDDKCCRPKLKCSKLFKLCNFSF-NH2; disulfide 16-30, 2-17, 9-23; ends not checked)
level of p-CREB [4]: affected
level of p-CaMKII [4]: affected
ultrasound-induced c-Fos expression in the nuclei [4]: inhibited this effect
p-CREB level after ultrasound [3, 6]: reduced to levels comparable to those in the untreated control; also recorded: inhibits this effect
p-CaMKII level after ultrasound [3, 6]: reduced to levels comparable to those in the untreated control; also recorded: inhibits this effect
